Patent US12077503B2, “Substituted cyclic amides and their use as herbicides” (FMC CORPORATION, priority 2015, dated 2024)

Key:
Type in all cases: in vivo
[1] = test system: velvetleaf (Abutilon theophrasti); assay: Test G Post-Emergence Protocol; settings: Abutilon theophrasti, post-emergence, 312 h
How it was run: (§1)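 Foliar application was made 8 days after sowing, using an aqueous spray of the active in acetone/water (50:50) with 0.5% Tween 20, at doses of 15.625, 62.5 or 250 g/ha. Injury was assessed 13 days later, where 100 meant the plant was fully damaged.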

[2] = test system: barnyardgrass (Echinochloa crus-galli); assay: Test G Post-Emergence Protocol; settings: Echinochloa crus-galli, post-emergence, 312 h
How it was run: as §1

[3] = test system: ivy-leaved morning glory (Ipomoea hederacea); assay: Test G Post-Emergence Protocol; settings: Ipomoea, post-emergence, 312 h
How it was run: as §1

[4] = test system: giant foxtail (Setaria faberi); assay: Test G Post-Emergence Protocol; settings: Setaria faberi, post-emergence, 312 h
How it was run: as §1

[5] = test system: redroot pigweed (Amaranthus retroflexus); assay: Test G Post-Emergence Protocol; settings: Amaranthus retroflexus, post-emergence, 312 h
How it was run: as §1

corn (Zea mays) [6] = assay: Test G Post-Emergence Protocol; settings: Zea mays, post-emergence, 312 h
How it was run: as §1

[7] = test system: velvetleaf (Abutilon theophrasti); assay: Test G Pre-Emergence Protocol; settings: Abutilon theophrasti, pre-emergence, 312 h, evaluated after 13 days
How it was run: (§2)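 Scores are visual damage ratings from 0 (no damage) to 100 (total plant kill), taken 13 days after treatment. Compound was sprayed one day post-sowing at 15.625, 62.5 or 250 g/ha in 50:50 acetone/water with 0.5% Tween 20.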

[8] = test system: barnyardgrass (Echinochloa crus-galli); assay: Test G Pre-Emergence Protocol; settings: Echinochloa crus-galli, pre-emergence, 312 h, evaluated after 13 days
How it was run: as §2

[9] = test system: ivy-leaved morning glory (Ipomoea hederacea); assay: Test G Pre-Emergence Protocol; settings: Ipomoea, pre-emergence, 312 h, evaluated after 13 days
How it was run: as §2

[10] = test system: giant foxtail (Setaria faberi); assay: Test G Pre-Emergence Protocol; settings: Setaria faberi, pre-emergence, 312 h, evaluated after 13 days
How it was run: as §2

[11] = test system: redroot pigweed (Amaranthus retroflexus); assay: Test G Pre-Emergence Protocol; settings: Amaranthus retroflexus, pre-emergence, 312 h, evaluated after 13 days
How it was run: as §2

corn (Zea mays) [12] = assay: Test G Pre-Emergence Protocol; settings: Zea mays, pre-emergence, 312 h, evaluated after 13 days
How it was run: as §2

Cc1cc(C(F)(F)F)ccc1NC(=O)[C@H]1C(=O)N(C)C[C@@H]1c1ccc(C(F)(F)F)cc1 (racemic) [Compound 1411]
0%: pest or weed control at 15.625 g/ha ([1]; 15.625 g ai/ha, evaluated after 13 days (100=total damage to plant; 0=no damage to plant), read-out: Velvetleaf damage rating) | pest or weed control at 62.5 g/ha ([1]; 62.5 g ai/ha, evaluated after 13 days, read-out: Velvetleaf damage rating (100=total damage to plant; 0=no damage to plant)) | pest or weed control at 250 g/ha ([1]; 250 g ai/ha, evaluated after 13 days, read-out: damage to plant, Velvetleaf (100=total damage to plant; 0=no damage to plant)) | pest or weed control at 15.625 g/ha ([2]; 15.625 g ai/ha, evaluated after 13 days (100=total damage to plant; 0=no damage to plant), read-out: Barnyardgrass damage rating) | pest or weed control at 62.5 g/ha ([2]; 62.5 g ai/ha, evaluated after 13 days, read-out: Barnyardgrass damage rating (100=total damage to plant; 0=no damage to plant)) | pest or weed control at 250 g/ha ([2]; 250 g ai/ha, evaluated after 13 days, read-out: damage to plant, Barnyardgrass (100=total damage to plant; 0=no damage to plant)) | pest or weed control at 15.625 g/ha ([3]; 15.625 g ai/ha, evaluated after 13 days (100=total damage to plant; 0=no damage to plant), read-out: Morningglory, Ivy-leaved damage rating) | pest or weed control at 62.5 g/ha ([3]; 62.5 g ai/ha, evaluated after 13 days, read-out: Morningglory, Ivy-leaved damage rating (100=total damage to plant; 0=no damage to plant)) | pest or weed control at 250 g/ha ([3]; 250 g ai/ha, evaluated after 13 days, read-out: damage to plant, Morningglory, Ivy-leaved (100=total damage to plant; 0=no damage to plant)) | pest or weed control at 15.625 g/ha ([4]; 15.625 g ai/ha, evaluated after 13 days (100=total damage to plant; 0=no damage to plant), read-out: Foxtail, Giant damage rating) | pest or weed control at 62.5 g/ha ([4]; 62.5 g ai/ha, evaluated after 13 days, read-out: Foxtail, Giant damage rating (100=total damage to plant; 0=no damage to plant)) | pest or weed control at 250 g/ha ([4]; 250 g ai/ha, evaluated after 13 days, read-out: damage to plant, Foxtail, Giant (100=total damage to plant; 0=no damage to plant)) | pest or weed control at 15.625 g/ha ([5]; 15.625 g ai/ha, evaluated after 13 days (100=total damage to plant; 0=no damage to plant), read-out: Pigweed, Redroot damage rating) | pest or weed control at 62.5 g/ha ([5]; 62.5 g ai/ha, evaluated after 13 days, read-out: Pigweed, Redroot damage rating (100=total damage to plant; 0=no damage to plant)) | pest or weed control at 250 g/ha ([5]; 250 g ai/ha, evaluated after 13 days, read-out: damage to plant, Pigweed, Redroot (100=total damage to plant; 0=no damage to plant)) | plant injury at 15.625 g/ha (corn (Zea mays) [6]; 15.625 g ai/ha, evaluated after 13 days (100=total damage to plant; 0=no damage to plant), read-out: Corn damage rating) | plant injury at 62.5 g/ha (corn (Zea mays) [6]; 62.5 g ai/ha, evaluated after 13 days, read-out: Corn damage rating (100=total damage to plant; 0=no damage to plant)) | plant injury at 250 g/ha (corn (Zea mays) [6]; 250 g ai/ha, evaluated after 13 days, read-out: damage to plant, Corn (100=total damage to plant; 0=no damage to plant)) | pest or weed control at 15.625 g/ha ([7]; 15.625 g ai/ha, read-out: Velvetleaf damage rating (100=total damage to plant; 0=no damage to plant)) | pest or weed control at 62.5 g/ha ([7]; 62.5 g ai/ha, 100=total damage to plant, 0=no damage to plant, read-out: plant damage rating, Velvetleaf) | pest or weed control at 250 g/ha ([7]; 250 g ai/ha, read-out: Velvetleaf damage rating (100=total damage to plant; 0=no damage to plant)) | pest or weed control at 15.625 g/ha ([8]; 15.625 g ai/ha, read-out: Barnyard grass damage rating (100=total damage to plant; 0=no damage to plant)) | pest or weed control at 62.5 g/ha ([8]; 62.5 g ai/ha, 100=total damage to plant, 0=no damage to plant, read-out: plant damage rating, Barnyardgrass) | pest or weed control at 250 g/ha ([8]; 250 g ai/ha, read-out: Barnyardgrass damage rating (100=total damage to plant; 0=no damage to plant)) | pest or weed control at 15.625 g/ha ([9]; 15.625 g ai/ha, read-out: Morning-glory, Ivy-leaved damage rating (100=total damage to plant; 0=no damage to plant)) | pest or weed control at 62.5 g/ha ([9]; 62.5 g ai/ha, 100=total damage to plant, 0=no damage to plant, read-out: plant damage rating, Morningglory, Ivy-leaved) | pest or weed control at 250 g/ha ([9]; 250 g ai/ha, read-out: Morningglory, Ivy-leaved damage rating (100=total damage to plant; 0=no damage to plant)) | pest or weed control at 15.625 g/ha ([10]; 15.625 g ai/ha, read-out: Foxtail, Giant damage rating (100=total damage to plant; 0=no damage to plant)) | pest or weed control at 62.5 g/ha ([10]; 62.5 g ai/ha, 100=total damage to plant, 0=no damage to plant, read-out: plant damage rating, Foxtail, Giant) | pest or weed control at 250 g/ha ([10]; 250 g ai/ha, read-out: Foxtail, Giant damage rating (100=total damage to plant; 0=no damage to plant)) | pest or weed control at 15.625 g/ha ([11]; 15.625 g ai/ha, read-out: Pigweed, Redroot damage rating (100=total damage to plant; 0=no damage to plant)) | pest or weed control at 62.5 g/ha ([11]; 62.5 g ai/ha, 100=total damage to plant, 0=no damage to plant, read-out: plant damage rating, Pigweed, Redroot) | pest or weed control at 250 g/ha ([11]; 250 g ai/ha, read-out: Pigweed, Redroot damage rating (100=total damage to plant; 0=no damage to plant)) | plant injury at 15.625 g/ha (corn (Zea mays) [12]; 15.625 g ai/ha, read-out: Corn damage rating (100=total damage to plant; 0=no damage to plant)) | plant injury at 62.5 g/ha (corn (Zea mays) [12]; 62.5 g ai/ha, 100=total damage to plant, 0=no damage to plant, read-out: plant damage rating, Corn) | plant injury at 250 g/ha (corn (Zea mays) [12]; 250 g ai/ha, read-out: Corn damage rating (100=total damage to plant; 0=no damage to plant))
